Experimental data: publication PMC8705904, “Structural Bases for Hesperetin Derivatives: Inhibition of Protein Tyrosine Phosphatase 1B, Kinetics Mechanism and Molecular Docking Study” (Molecules, 2021)

Key:
[1] = target: T1, PTP1B (human recombinant) (Homo sapiens, UniProt P18031); experiment: PTP1B inhibitory assay using pNPP; assay type: biochemical; conditions: for IC50: mean ± S.E.M of triplicate experiments, substrate pNPP
T1 construct: purchased Biomol International LP (Plymouth Meeting, PA, USA)
T1 sequence (P18031 1-435): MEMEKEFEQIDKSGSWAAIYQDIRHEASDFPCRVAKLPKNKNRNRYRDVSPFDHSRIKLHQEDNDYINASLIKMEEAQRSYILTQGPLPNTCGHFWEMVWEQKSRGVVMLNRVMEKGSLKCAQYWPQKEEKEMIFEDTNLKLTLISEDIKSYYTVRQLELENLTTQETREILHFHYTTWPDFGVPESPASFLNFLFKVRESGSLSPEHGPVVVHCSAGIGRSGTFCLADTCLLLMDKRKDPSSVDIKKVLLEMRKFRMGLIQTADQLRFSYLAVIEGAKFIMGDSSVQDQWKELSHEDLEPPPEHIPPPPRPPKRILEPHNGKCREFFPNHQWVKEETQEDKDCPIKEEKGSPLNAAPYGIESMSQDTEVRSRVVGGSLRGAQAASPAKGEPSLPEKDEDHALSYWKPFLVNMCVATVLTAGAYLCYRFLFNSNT
Experimental: (§1) The PTP1B inhibitory activity was evaluated using pNPP according to the work of Jung et al.. In each well of a 96-well plate (each with a final volume of 100 µL), 40 µL of PTP1B enzyme [0.5 units diluted with a PTP1B reaction buffer containing 50 mM citrate (pH 6.0), 0.1 M NaCl, 1 mM EDTA, and 1 mM DTT] was added with or without the sample dissolved in 10% DMSO. The plate was preincubated at 37 °C for 10 min and then 50 µL of 2 mM pNPP in the PTP1B reaction buffer was added. Following incubation at 37 °C for 20 min, the reaction was terminated by the addition of 10 M NaOH. […] The inhibition percentage was obtained using the following equation: % inhibition = (Ac − As)/Ac × 100, where Ac is the absorbance of the control and As is the absorbance of the sample.

[2] = target: T1, PTP1B (human recombinant); experiment: Kinetic analysis of PTP1B inhibition (Lineweaver–Burk and Dixon plots); assay type: biochemical; conditions: for Ki: determined by Dixon plots; for PTP1B type of inhibition: determined by Lineweaver–Burk plots, pNPP 0.5, 1.0 and 2.0 mM
Experimental: as §1
To determine the kinetic mechanism, two kinetic methods using Lineweaver–Burk and Dixon plots were complementarily used. […] The enzymatic inhibitions of the test flavonoids were evaluated by monitoring the effects of different concentrations of the […] in the Dixon plots (single reciprocal plot). The enzymatic procedure consisted of the same, aforementioned, PTP1B assay method. The inhibition constants (Ki) were determined by interpretation of the Dixon plots, where the value of the x-axis implies -Ki.

Row | SMILES | IC50 [1] [µM] | Ki [2] [µM] | PTP1B type of inhibition [2] | PTP1B type of inhibition ([2]; listed as hesperetin 5-O-glucoside) | PTP1B type of inhibition ([2]; listed as neohesperidin) | PTP1B type of inhibition ([2]; listed as hesperetin) | PTP1B inhibitory activity (in words) [1] | PTP1B type of inhibition ([2]; listed as hesperidin)
1 | COc1ccc(C2CC(=O)c3c(O)cc(OC4OC(COC5OC(C)C(O)C(O)C5O)C(O)C(O)C4O)cc3O2)cc1O (stereo not drawn) [Hesperidin, hesperetin 7-O-rutinoside] | 58.1 ± 4.18 | 50 | Mixed | – | – | – | – | mixed-type inhibition
2 | COc1ccc([C@@H]2CC(=O)c3c(O)cc(O)cc3O2)cc1O [Hesperetin] | 288 ± 7.98 | 295 | Uncompetitive | – | – | uncompetitive-type inhibition | – | –

More lines, main results first:

Row | IC50 [1] [µM] | Ki [2] [µM] | PTP1B type of inhibition [2] | PTP1B type of inhibition ([2]; listed as hesperetin 5-O-glucoside) | PTP1B type of inhibition ([2]; listed as neohesperidin) | PTP1B type of inhibition ([2]; listed as hesperetin) | PTP1B inhibitory activity (in words) [1] | SMILES | PTP1B type of inhibition ([2]; listed as hesperidin)
3 | 37.14 ± 0.07 | 81.6 | Mixed | mixed-type inhibition | – | – | – | COc1ccc(C2CC(=O)c3c(cc(O)cc3OC3OC(CO)C(O)C(O)C3O)O2)cc1O (stereo not drawn) [Hesperetin 5-O-glucoside] | –
4 | 144 ± 3.04 | 154 | Uncompetitive | – | uncompetitive-type inhibition | – | – | COc1ccc(C2CC(=O)c3c(O)cc(OC4OC(CO)C(O)C(O)C4OC4OC(C)C(O)C(O)C4O)cc3O2)cc1O (stereo not drawn) [Neohesperidin, hesperetin 7-O-neohesperidoside] | –
5 | > 300 | – | – | – | – | – | inactive | COc1ccc(C2CC(=O)c3c(O)cc(OC4OC(CO)C(O)C(O)C4O)cc3O2)cc1O (stereo not drawn) [Hesperetin 7-O-glucoside] | –
